US20100021885A1, “REAGENT SETS AND GENE SIGNATURES FOR NON-GENOTOXIC HEPATOCARCINOGENICITY” (priority 2006, published 2010)

System: livers from treated male Sprague-Dawley rats
Conditions: 37 gene signature; maximum scalar product over days 1, 3 and 5; scalar product greater than zero = positive
Description: Briefly, in vivo short-term repeat dose rat studies were conducted on over 580 test compounds, including marketed and withdrawn drugs, environmental and industrial toxicants, and standard biochemical reagents. Rats (three per group) were dosed daily at either a low or high dose. […] Animals were necropsied on days 0.25, 1, 3, and 5 or 7. Up to 13 tissues (e.g., liver, kidney, heart, bone marrow, blood, spleen, brain, intestine, glandular and nonglandular stomach, lung, muscle, and gonads) were collected for histopathological evaluation and microarray expression profiling on the Amersham CodeLink™ RU1 platform (also referred to herein as “CodeLink Uniset™ Rat 1 Bioarray”). In addition, a clinical pathology panel consisting of 37 clinical chemistry and hematology parameters was generated from blood samples collected on days 3 and 5.
The remaining 21 NGTC chemicals and 26 NC chemicals were reserved for independent validation of the signature. Each chemical was evaluated in a short term repeat dose in vivo study in male Sprague-Dawley rats (n=3/group). The livers from treated and control rats were collected after 1, 3 and 5 days of dosing and RNA was extracted for gene expression profiling. Gene expression changes in treated animals were compared to suitably matched controls and represented as average log10 ratios for each treatment group. Since the development of tumors is a long term multi-step process, the 100 training set chemicals were profiled at the latest time point in order to capture gene expression changes that were likely to be reflective of repeat dose treatment effects that contribute to carcinogenicity and not reflective of an initial stimulus following a single dose that may be transient in nature.
Male Sprague-Dawley (Crl:CD®(SD)(IGS)BR) rats (weight matched, 7 to 8 weeks of age and averaging 200 to 250 g) were purchased from Charles River Laboratories (Portage, Mich.) and housed individually in hanging, stainless steel, wire-bottom cages in a temperature (66-77° F.), light (12-hour dark/light cycle) and humidity (30-70%) controlled room. […] Housing and treatment of the animals were in accordance with regulations outlined in the USDA Animal Welfare Act (9 CFR Parts 1, 2 and 3). Animals were assigned to groups such that mean body weights were within 10% of the mean vehicle control group. Test articles were administered either orally (10 ml of corn oil/kg body weight) or by intra-peritoneal injection (5 ml of saline/kg body weight), as indicated. Animals were dosed once daily starting on day 0, and necropsied 24 hrs after the last dose, as indicated. An equivalent number of time- and vehicle-matched control rats were treated concurrently.
Briefly, liver samples from 3 rats were chosen from each treatment and control group for gene expression analysis on the Codelink Uniset™ Rat 1 Bioarray (GE Healthcare Bio-Sciences Corp., Piscataway, N.J.). A complete list of probes on the array is provided on the Amersham Biosciences web site (www.amershambiosciences.com). Log transformed signal data for all probes were array-wise normalized used Array Qualifier (Novation Biosciences, Palo Alto, Calif.), a non-linear centralization normalization procedure adapted for the CodeLink microarray platform. Log10 ratios for each experimental group are computed as the difference between the average of the logs of the normalized experimental signals and the average of the logs of the normalized control signals for each gene.
where S is the scalar product and b is the bias term. Evaluation of S for a test experiment across the n genes in the signature determines what side of the hyperplane in m dimensional space the test experiment lies, and thus the result of the classification. Experiments with scalar products greater than 0 are considered positive for non-genotoxic hepatocarcinogenicity.

Row | Compound | signature prediction for non-genotoxic hepatocarcinogenicity
1 | C=C(Cl)Cl [1,1-dichloroethene, reference compound] | negative

Same assay, conditions: Female; 37 gene signature, day 1

Row | Compound | Day 1 (scalar product)
2 | C[C@]12CC[C@@H]3c4ccc(OC(=O)c5ccccc5)cc4CC[C@H]3[C@@H]1CC[C@@H]2O [BETA-ESTRADIOL 3-BENZOATE] | 0.81

Same assay, conditions: Female; 37 gene signature, day 3

Row | Compound | Day 3 (scalar product)
3 | C[C@]12CC[C@@H]3c4ccc(OC(=O)c5ccccc5)cc4CC[C@H]3[C@@H]1CC[C@@H]2O [BETA-ESTRADIOL 3-BENZOATE] | 0.25

Same assay, conditions: Female; 37 gene signature, day 5

Row | Compound | Day 5 (scalar product)
4 | C[C@]12CC[C@@H]3c4ccc(OC(=O)c5ccccc5)cc4CC[C@H]3[C@@H]1CC[C@@H]2O [BETA-ESTRADIOL 3-BENZOATE] | 0.03

Same assay, conditions: Female; maximum of days 1, 3, 5

Row | Compound | Max (maximum scalar product)
5 | C[C@]12CC[C@@H]3c4ccc(OC(=O)c5ccccc5)cc4CC[C@H]3[C@@H]1CC[C@@H]2O [BETA-ESTRADIOL 3-BENZOATE] | 0.81

Same assay, conditions: female, Sprague-Dawley, rat, in vivo

Row | Compound | Max (maximum scalar product)
6 | O=C(c1ccc(OCCN2CCCCC2)cc1)c1c(-c2ccc(O)cc2)sc2cc(O)ccc12 [RALOXIFENE, reference compound] | −0.66

Same assay, conditions: female, Sprague-Dawley, rat, in vivo, 1 day

Row | Compound | Day 1 (scalar product)
7 | O=C(c1ccc(OCCN2CCCCC2)cc1)c1c(-c2ccc(O)cc2)sc2cc(O)ccc12 [RALOXIFENE, reference compound] | −0.66

Same assay, conditions: female, Sprague-Dawley, rat, in vivo, 3 days

Row | Compound | Day 3 (scalar product)
8 | O=C(c1ccc(OCCN2CCCCC2)cc1)c1c(-c2ccc(O)cc2)sc2cc(O)ccc12 [RALOXIFENE, reference compound] | −1.25

Same assay, conditions: female, Sprague-Dawley, rat, in vivo, 5 days

Row | Compound | Day 5 (scalar product)
9 | O=C(c1ccc(OCCN2CCCCC2)cc1)c1c(-c2ccc(O)cc2)sc2cc(O)ccc12 [RALOXIFENE, reference compound] | −2.11

Same assay, conditions: male, Sprague-Dawley, rat, in vivo

Row | Compound | Max (maximum scalar product observed over the multiple time points)
10 | CC[C@H]1OC(=O)[C@H](C)[C@@H](O[C@H]2C[C@@](C)(OC)[C@@H](O)[C@H](C)O2)[C@H](C)[C@@H](O[C@@H]2O[C@H](C)C[C@H](N(C)C)[C@H]2O)[C@](C)(O)C[C@@H](C)C(=O)[C@H](C)[C@@H](O)[C@]1(C)O [ERYTHROMYCIN] | −1.18
11 | CC(C)(Oc1ccc(Cl)cc1)C(=O)O [CLOFIBRIC ACID] | 0.86
12 | CN(C)CCCC1(c2ccc(F)cc2)OCc2cc(C#N)ccc21 (centres unmarked) [CITALOPRAM] | −0.28
13 | Cc1cccc(C)c1NC(=O)C(C)N (centres unmarked) [TOCAINIDE] | −0.91
14 | CC(C)c1c(C(=O)Nc2ccccc2)c(-c2ccccc2)c(-c2ccc(F)cc2)n1CC[C@@H](O)C[C@@H](O)CC(=O)O [ATORVASTATIN] | 1.85
15 | Clc1ccc2c(c1)C(N1CCNCC1)=Nc1ccccc1O2 [AMOXAPINE] | −1.00
16 | Nc1ccn([C@@H]2O[C@H](CO)[C@@H](O)[C@@H]2O)c(=O)n1 [CYTARABINE] | −0.71
17 | OCCOCCN1CCN(C2=Nc3ccccc3Sc3ccccc32)CC1 [QUETIAPINE] | −0.42
18 | CC(O)CO (centres unmarked) [propylene glycol, reference compound] | −0.80
19 | CCN(CC)CCOc1ccc(C(=C(Cl)c2ccccc2)c2ccccc2)cc1 [CLOMIPHENE] | −1.71
20 | CC(C)(C)NC(=O)[C@H]1CC[C@H]2[C@@H]3CC[C@H]4NC(=O)C=C[C@]4(C)[C@H]3CC[C@]12C [FINASTERIDE] | 0.22
21 | CCOC(=O)n1ccn(C)c1=S [CARBIMAZOLE] | −0.38
22 | Cc1ccnc2c1NC(=O)c1cccnc1N2C1CC1 [NEVIRAPINE] | −0.38
23 | CCC1=C[C@@H]2CN(C1)Cc1c([nH]c3ccccc13)[C@@](C(=O)OC)(c1cc3c(cc1OC)N(C)[C@H]1[C@@](O)(C(=O)OC)[C@H](OC(C)=O)[C@]4(CC)C=CCN5CC[C@]31[C@@H]54)C2 [VINORELBINE] | −1.37
24 | CN(C)CCCN1c2ccccc2CCc2ccc(Cl)cc21 [CLOMIPRAMINE] | −1.46

Same assay, conditions: male, rat, in vivo

Row | Compound | Day 1 (scalar product) | Day 3 (scalar product) | Day 5 (scalar product) | Max (maximum scalar product observed over the multiple time points)
25 | CN(C)[C@@H]1C(O)=C(C(N)=O)C(=O)[C@@]2(O)C(O)=C3C(=O)c4c(O)cccc4[C@@](C)(O)[C@H]3C[C@@H]12 [TETRACYCLINE] | −0.40 | −1.18 | −1.31 | −0.40
26 | CN1C(=O)CN=C(c2ccccc2)c2cc(Cl)ccc21 [DIAZEPAM] | −1.40 | −0.06 | 0.52 | 0.52
27 | CC(C)(C)CC(C)(C)c1ccc(OCCOCC[N+](C)(C)Cc2ccccc2)cc1 [BENZETHONIUM CHLORIDE] | −0.13 | −1.34 | −1.68 | −0.13

Same assay, conditions: maximum of days 1, 3, 5; greater than zero = classified non-genotoxic hepatocarcinogen

Row | Compound | Max (maximum scalar product observed over the multiple time points)
28 | C=C1CC[C@H](O)C/C1=C/C=C1\CCC[C@]2(C)[C@@H]([C@H](C)CCCC(C)C)CC[C@@H]12 [CHOLECALCIFEROL] | −1.38
29 | c1ccc2c(c1)Nc1ccccc1S2 [PHENOTHIAZINE] | 0.70
30 | COc1ccc(C(CN(C)C)C2(O)CCCCC2)cc1 (centres unmarked) [VENLAFAXINE] | −0.95
31 | O=C1Nc2ccc(Cl)cc2C(c2ccccc2Cl)=NC1O (centres unmarked) [LORAZEPAM] | 0.10
32 | CC(C)=CCC/C(C)=C/CO [GERANIOL] | −0.30
33 | C=C(Cl)Cl [1,1-dichloroethene, reference compound] | −0.80
34 | C[C@]12C/C(=C/O)C(=O)C[C@@H]1CC[C@@H]1[C@@H]2CC[C@@]2(C)[C@H]1CC[C@]2(C)O [OXYMETHOLONE] | −0.36

Same assay, conditions: rat, in vivo

Row | Compound | signature prediction for non-genotoxic hepatocarcinogenicity
35 | CC(O)CO (centres unmarked) [propylene glycol, reference compound] | negative

System: liver of rats
Conditions: literature-curated: induction of neoplastic lesions in the liver of rats, two year rodent bioassay results and/or class effect information; cited from earlier work

Row | Compound | Class
36 | C[C@]12CCC(=O)C=C1CC[C@@H]1[C@@H]2CC[C@@]2(C)[C@H]1CC[C@]2(C)O [17-METHYLTESTOSTERONE] | NGTC
37 | C#C[C@]1(O)CC[C@H]2[C@@H]3CCc4cc(O)ccc4[C@H]3CC[C@@]21C [ETHINYLESTRADIOL] | NGTC
38 | CC(NC(C)(C)C)C(=O)c1cccc(Cl)c1 (centres unmarked) [BUPROPION] | NGTC
39 | Cc1ccc(C)c(OCCCC(C)(C)C(=O)O)c1 [GEMFIBROZIL] | NGTC
40 | CC(C)(Oc1ccc(C2CCCc3ccccc32)cc1)C(=O)O (centres unmarked) [NAFENOPIN] | NGTC
41 | CCCC(C)C1(CC)C(=O)NC(=O)NC1=O (centres unmarked) [PENTOBARBITAL] | NGTC
42 | Cc1cccc(Nc2cc(Cl)nc(SCC(=O)O)n2)c1C [PIRINIXIC ACID] | NGTC
43 | CCOC(=O)C(C)(C)Oc1ccc(Cl)cc1 [CLOFIBRATE] | NGTC
44 | CC(=O)[C@H]1CC[C@H]2[C@@H]3CCC4=CC(=O)CC[C@]4(C)[C@H]3CC[C@]12C [PROGESTERONE] | NGTC
45 | CC[C@H](C)C(=O)O[C@H]1C[C@H](O)C=C2C=C[C@H](C)[C@H](CC[C@@H](O)C[C@@H](O)CC(=O)O)[C@H]21 [PRAVASTATIN] | NGTC
46 | CC(C)OC(=O)C(C)(C)Oc1ccc(C(=O)c2ccc(Cl)cc2)cc1 [FENOFIBRATE] | NGTC
47 | CCO [ETHANOL] | NGTC
48 | Clc1cc2c(cc1Cl)Oc1cc(Cl)c(Cl)cc1O2 [2,3,7,8-TETRACHLORODIBENZO-P-DIOXIN] | NGTC
49 | CN(C)CCN(Cc1cccs1)c1ccccn1 | NGTC
50 | CC(=N)S [THIOACETAMIDE] | NGTC

Same assay, conditions: rat, in vivo; cited from earlier work

Row | Compound | Class
51 | C=CCc1ccc2c(c1)OCO2 [SAFROLE] | NGTC
52 | aflatoxin B1 | GTC
53 | C[C@]12CC[C@@H]3c4ccc(O)cc4CC[C@H]3[C@@H]1C[C@@H](O)[C@@H]2O [ESTRIOL] | NGTC
